Laboratory results from US10620225B2, “Detection of polymyxins” (Randox Laboratories Limited, priority 2014, dated 2020).

Experiments:
Assay type in all cases: binding, sheep
[1] = tested on: Polymyxin B derived antibody; test: Competitive biochip immunoassay, standard curves with Polymyxin B derived antibody and Colistin-based tracer; details: for CR (percentage cross-reactivity) / IC50 (standard concentration which produces 50% inhibition of maximal signal): Polymyxin B derived antibody, Colistin-based tracer
Procedure: (§1) The process of developing an immunoassay is well known to the person skilled in the art. Briefly, for a competitive immunoassay in which the target analyte is a non-immunogenic molecule such as a hapten, a general immunoassay development process outlined. Following antibody production, a detecting agent is added to a sample containing the target analyte and the raised antibodies, and the detecting agent and analyte compete for binding to the antibodies. The process may comprise fixing said serum antibodies to a solid state device such as a polystyrene support or a ceramic chip. The antibodies can be polyclonal or monoclonal using standard techniques, but the current invention makes use of polyclonal antibodies. The signal emitted in the immunoassay is proportionate to the quantity of detecting agent bound to the antibodies which in turn is inversely proportionate to the analyte concentration. The signal can be detected or quantified by comparison with a calibrator.
(§2) 175 μl of assay diluent, then 25 μl of Polymyxin diluted in calibrator base was added to the appropriate wells. Biochips spotted with antibody of the invention were incubated for 30 min at 25° C. in a thermo-shaker at 370 rpm. 100 μl Tracer of the invention was added to the appropriate wells. Biochips were incubated for 60 min at 25° C. in a thermo-shaker at 370 rpm. Biochips were washed with TBST (2 quick washes followed by 4 washes at 2 min intervals). Biochips were developed with 250 μl signal: peroxide (1:1) for 2 min in the dark. Biochips were imaged on the Randox Investigator (2×60 sec images). All biochips were manually processed.

[2] = tested on: Antibody RS2790; test: Competitive biochip immunoassay with Polymyxin B-KLH derived antibody RS2790 and Colistin-HRP tracer
Procedure: as §1, §2

[3] = tested on: Antibody RS2801; test: Competitive biochip immunoassay with Polymyxin B-KLH derived antibody RS2801 and Colistin-HRP tracer
Procedure: as §1, §2

[4] = tested on: Antibody RS2830; test: Competitive biochip immunoassay with Polymyxin B-KLH derived antibody RS2830 and Colistin-HRP tracer
Procedure: as §1, §2

[5] = antibody 0.1 mg/ml, Colistin-HRP tracer dilution 1/50K
[6] = antibody 0.1 mg/ml, Colistin-HRP tracer dilution 1/100K
[7] = antibody 0.1 mg/ml, tracer dilution 1/50K
[8] = antibody 0.1 mg/ml, tracer dilution 1/100K
[9] = antibody 0.75 mg/ml, Colistin-HRP tracer dilution 1/50K
[10] = antibody 0.75 mg/ml, Colistin-HRP tracer dilution 1/100K
[11] = antibody 0.75 mg/ml, tracer dilution 1/50K
[12] = antibody 0.75 mg/ml, tracer dilution 1/100K
[13] = antibody 0.1 mg/ml, Colistin-HRP tracer dilution 1/500K
[14] = antibody 0.1 mg/ml, Colistin-HRP tracer dilution 1/1000K
[15] = antibody 0.1 mg/ml, tracer dilution 1/500K
[16] = antibody 0.1 mg/ml, tracer dilution 1/1000K
[17] = antibody 0.75 mg/ml, Colistin-HRP tracer dilution 1/500K
[18] = antibody 0.75 mg/ml, Colistin-HRP tracer dilution 1/1000K
[19] = antibody 0.75 mg/ml, tracer dilution 1/500K
[20] = antibody 0.75 mg/ml, tracer dilution 1/1000K

IC50 (standard concentration which produces 50% inhibition of maximal signal) [1] [ng/mL] | Relative Binding (IC50) [2, 7] [ng/mL] | Relative Binding (IC50) [2, 8] [ng/mL] | Relative Binding (IC50) [2, 11] [ng/mL] | Relative Binding (IC50) [2, 12] [ng/mL] | Relative Binding (IC50) [3, 15] [ng/mL] | Relative Binding (IC50) [3, 16] [ng/mL] | Relative Binding (IC50) [3, 19] [ng/mL] | Relative Binding (IC50) [3, 20] [ng/mL] | Substance | CR (percentage cross-reactivity) [1] | Relative % Cross-reactivity [2, 5] [%] | Relative % Cross-reactivity [2, 6] [%] | Relative % Cross-reactivity [2, 9] [%] | Relative % Cross-reactivity [2, 10] [%] | Relative % Cross-reactivity [3, 13] [%] | Relative % Cross-reactivity [3, 14] [%] | Relative % Cross-reactivity [3, 17] [%] | Relative % Cross-reactivity [3, 18] [%] | Relative % Cross-reactivity [4, 13] [%] | Relative % Cross-reactivity [4, 14] [%] | also measured
0.931 | 0.14 | 0.37 | 0.14 | 0.59 | 0.09 | 0.12 | 0.16 | 0.13 | Polymyxin B | (CR = 100%) | 100 | 100 | 100 | 100 | 100 | 100 | 100 | 100 | 100 | 100 | B/Bo ([1]; standard conc 0.078 ng/ml): 86%; B/Bo ([1]; standard conc 0.156 ng/ml): 78%; B/Bo ([1]; standard conc 0.313 ng/ml): 64%; B/Bo ([1]; standard conc 0.625 ng/ml): 56%; B/Bo ([1]; standard conc 1.250 ng/ml): 51%; B/Bo ([1]; standard conc 2.500 ng/ml): 38%; B/Bo ([1]; standard conc 5.000 ng/ml): 27%; B/Bo ([1]; standard conc 10.000 ng/ml): 16%; Relative Binding (IC50) [4, 15]: 0.15 ng/mL; Relative Binding (IC50) [4, 16]: 0.17 ng/mL; Relative % Cross-reactivity [4, 17]: 100%; Relative % Cross-reactivity [4, 18]: 100%; Relative Binding (IC50) [4, 19]: 0.17 ng/mL; Relative Binding (IC50) [4, 20]: 0.22 ng/mL
1.191 | 3.02 | 1.60 | 1.72 | 1.01 | 0.47 | 0.78 | 0.24 | 0.22 | Colistin | (CR = 80%) | 5 | 23 | 8 | 59 | 20 | 15 | 67 | 62 | 6 | 5 | B/Bo ([1]; standard conc 0.391 ng/ml): 71%; B/Bo ([1]; standard conc 0.781 ng/ml): 58%; B/Bo ([1]; standard conc 1.563 ng/ml): 44%; B/Bo ([1]; standard conc 3.125 ng/ml): 33%; B/Bo ([1]; standard conc 6.250 ng/ml): 17%; B/Bo ([1]; standard conc 12.500 ng/ml): 11%; B/Bo ([1]; standard conc 25.000 ng/ml): 9%; B/Bo ([1]; standard conc 50.000 ng/ml): 6%; Relative Binding (IC50) [4, 15]: 2.54 ng/mL; Relative Binding (IC50) [4, 16]: 3.62 ng/mL; Relative % Cross-reactivity [4, 17]: 8%; Relative % Cross-reactivity [4, 18]: 9%; Relative Binding (IC50) [4, 19]: 2.16 ng/mL; Relative Binding (IC50) [4, 20]: 2.47 ng/mL
